{"source": "patent US12122786B2", "about": "“Inhibitors of cyclic mono- and di-nucleotide phosphodiesterases and the uses thereof” (priority 2020, dated 2024)", "key": {"[1]": {"system": "PDE10", "settings": "read-out: IC50 (PDE10 inhibitor); cited from earlier work"}, "[2]": {"target": "T1, MTB CdnP (Mycobacterium tuberculosis, UniProt P71615)", "test": "Differential radial capillary action of ligand assay (DRaCALA)", "assay_type": "binding", "settings": "20 μM MTB CdnP, 200 pM 32P c-di-AMP; C82 even at 300 μM", "description": "(§1) FIG. 7A: unlabeled c-di-AMP inhibits ^32P-c-di-AMP sequestering by MTB CdnP in a concentration dependent manner. FIG. 7B: C82 effects on ^32P-c-di-AMP sequestering by MTB CdnP. […] CDA=c-di-AMP. ***=p-value<0.001. Statistical analysis conducted using the student's t-test.\n(§2) Next, we sought to determine C82 mode of inhibition. Firstly, we confirmed that C82 does indeed bind to MTB CdnP, using intrinsic fluorescence assay^20. […] We then determined whether C82 could displace bound c-di-AMP from MTB CdnP. […] We also used a secondary fluorescent polarization displacement assay to confirm this finding. Briefly, fluorescent labeled c-di-GMP was incubated with MTB CdnP and treated with different concentrations of C82, or c-di-AMP in the presence of calcium to inhibit the cleavage of the bound CDN′″. […] We therefore concluded that C82 inhibits MTB CdnP by binding to a non-cyclic dinucleotide binding site. Kinetics studies reveal that C82 inhibits MTB CdnP with an apparent inhibition constant of approximately 8 μM (FIG. 8). Future structural work, beyond the scope of this work should help clarify the binding site of C82.\n5 μl of the reaction mixture was pipetted onto dry untreated nitrocellulose membrane (GE Healthcare) and allowed to dry at room temperature. The nitrocellulose membrane was exposed to the GE Storage Phosphor screen for 8 h and then visualized with Typhoon™ FLA 9500 biomolecular imager."}, "[3]": {"target": "T1, MTB CdnP", "test": "IC50 determination of MTB CdnP inhibition, coralyne assay", "assay_type": "biochemical", "settings": "50 nM MTB CdnP and 80 μM c-di-AMP, read-out: IC50 of MTB CdnP enzymatic activity inhibition"}, "[4]": {"target": "T1, MTB CdnP", "test": "HPLC analysis of c-di-AMP cleavage by MTB CdnP", "assay_type": "biochemical", "settings": "20 μM compound, 100 nM MTB CdnP, 70 μM c-di-AMP, 37° C."}, "[5]": {"target": "T1, MTB CdnP", "assay_type": "biochemical", "settings": "20 to 150 μM inhibitor, 0.5 μM MTB CdnP, 1 h at 37° C."}, "[6]": {"target": "T1, MTB CdnP", "test": "Kinetics study (Dixon plot) by coralyne assay", "assay_type": "biochemical", "settings": "50 nM MTB CdnP, 30° C., read-out: apparent inhibition constant", "description": "FIG. 8: C82 Dixon plot. Initial velocity was determined using slope of c-di-AMP hydrolysis kinetics.\nas §2"}, "[7]": {"target": "T1, MTB CdnP", "test": "Intrinsic fluorescence binding assay", "settings": "2 μM MTB CdnP, varying concentrations, 1× PBS", "description": "as §2\nSolutions containing 2 μM MTB CndP, and varying concentrations of C82 in 1× PBS were incubated for 30 min at room temperature. Fluorescence spectra were obtained by measuring fluorescence intensities in the 310 nm to 400 nm range following an excitation at 290 nm wavelength."}, "[8]": {"target": "T1, MTB CdnP", "test": "Fluorescence polarization competition assay", "assay_type": "binding", "settings": "150 μM MTB CdnP, 50 nM F-c-di-GMP, calcium", "description": "as §1, §2\nFluorescence polarization was determined using Biotek Cytation 5 multi-mode reader (excitation 485 nm/20 and emission 528 nm/20). Anisotropy was calculated using the GEN 5™ microplate reader and imaging software."}, "[9]": {"target": "T2, PDE5A (Homo sapiens, UniProt O76074)", "T2 construct": "purchased Reaction Biology", "test": "Cyclic mononucleotide phosphodiesterase inhibition (PDE5A), Transcreener fluorescence polarization assay", "assay_type": "biochemical", "settings": "10 μM of compound, 1 μM cGMP, 1 h", "description": "Cyclic mononucleotide phosphodiesterase inhibition (PDE5A): 10 μM of compound was added to PDE5A in Buffer (10 mM Tris, pH 7.5, 5 mM MgCl2, 0.01% Brij 35, 1 mM DTT, and 1% DMSO). 1 μM cGMP was added and the reaction was incubated for 1 h. The assay used detects the reaction product, GMP, by Transcreener Fluorescence polarization assay (Reaction Biology)."}, "[10]": {"system": "mammalian cells (MDA-MB-231, and MRC-5)", "settings": "up to 100 μM, 24 h"}, "[11]": {"target": "Yybt (Bacillus subtilis, UniProt P37484)", "test": "Selectivity, HPLC analysis of Yybt reaction", "settings": "70 μM c-di-AMP, 1 μM Yybt, 37° C., 60 min"}, "[12]": {"target": "RocR (Pseudomonas aeruginosa, UniProt Q9HX69)", "test": "Selectivity, HPLC analysis of RocR reaction", "settings": "25 μM c-di-GMP, 10 nM RocR, 37° C., 60 min"}, "[13]": {"target": "T3, ENPP1 (Homo sapiens, UniProt P22413)", "T3 sequence (P22413 1-925)": "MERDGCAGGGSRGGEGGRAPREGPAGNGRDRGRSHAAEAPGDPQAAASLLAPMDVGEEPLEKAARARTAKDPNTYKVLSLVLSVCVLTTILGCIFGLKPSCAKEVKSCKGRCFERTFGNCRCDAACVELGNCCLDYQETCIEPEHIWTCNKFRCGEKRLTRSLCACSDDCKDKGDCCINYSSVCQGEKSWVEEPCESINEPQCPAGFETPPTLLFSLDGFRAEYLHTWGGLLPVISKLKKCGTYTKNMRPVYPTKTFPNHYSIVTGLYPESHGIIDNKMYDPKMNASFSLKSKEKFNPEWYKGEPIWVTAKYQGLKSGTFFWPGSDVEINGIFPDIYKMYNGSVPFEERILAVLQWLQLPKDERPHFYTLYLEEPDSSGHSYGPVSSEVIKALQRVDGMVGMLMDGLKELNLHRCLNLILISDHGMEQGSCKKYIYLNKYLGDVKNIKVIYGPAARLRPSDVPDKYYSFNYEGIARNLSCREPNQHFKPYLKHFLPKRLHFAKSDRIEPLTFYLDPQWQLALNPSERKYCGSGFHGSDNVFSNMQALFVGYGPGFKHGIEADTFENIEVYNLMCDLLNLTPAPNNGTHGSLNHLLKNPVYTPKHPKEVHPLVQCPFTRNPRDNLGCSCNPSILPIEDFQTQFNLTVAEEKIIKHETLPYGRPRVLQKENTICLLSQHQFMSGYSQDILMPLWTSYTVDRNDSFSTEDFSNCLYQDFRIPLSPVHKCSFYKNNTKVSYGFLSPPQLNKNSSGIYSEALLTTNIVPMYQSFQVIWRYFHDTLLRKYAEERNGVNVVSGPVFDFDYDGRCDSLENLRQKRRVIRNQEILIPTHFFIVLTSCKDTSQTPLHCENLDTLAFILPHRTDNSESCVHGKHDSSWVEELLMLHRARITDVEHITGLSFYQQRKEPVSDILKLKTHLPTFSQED", "test": "Selectivity, HPLC analysis of ENPP1 reaction", "settings": "25 μM cGAMP, 4.58 nM ENPP1, 37° C., 60 min"}, "[14]": {"target": "poxin (Vaccinia virus, UniProt Q01225)", "test": "Selectivity, HPLC analysis of poxin reaction", "settings": "20 μM 2′3 cGAMP, 5 nM poxin, room temperature, 20 min"}, "[15]": {"system": "GBS-CdnP", "test": "Selectivity, HPLC analysis of GBS CdnP reaction", "settings": "50 μM c-di-AMP, 100 nM GBS CdnP, room temperature, 15 min"}, "[16]": {"system": "PDE3", "settings": "read-out: IC50 (PDE3 inhibitor); cited from earlier work"}, "[17]": {"system": "PDE4", "settings": "read-out: IC50 (PDE4 inhibitor); cited from earlier work"}}}
{"smiles": "COc1ccc(Cc2nccc3cc(OC)c(OC)cc23)cc1OC", "note": "[papaverine]", "values": [{"measurement": "IC50", "setting": "[1]", "value": 0.0923, "unit": "µM"}]}
{"smiles": "Nc1ncnc2c1ncn2[C@@H]1O[C@@H]2COP(=O)(O)O[C@H]3[C@@H](O)[C@H](n4cnc5c(N)ncnc54)O[C@@H]3COP(=O)(O)O[C@H]2[C@H]1O", "note": "[c-di-AMP, reference compound]", "values": [{"measurement": "displacement of radiolabeled c-di-AMP from MTB CdnP (DRaCALA)", "setting": "[2]", "value": "could displace radiolabeled c-di-AMP"}]}
{"smiles": "CCc1cc2c(=O)n(CC(=O)Nc3ccccc3OC)cnc2s1", "note": "[Compound C82]", "values": [{"measurement": "IC50", "setting": "[3]", "value": 17.4, "unit": "µM"}, {"measurement": "inhibition of c-di-AMP cleavage by MTB CdnP (HPLC), 3 h incubation", "setting": "[4]; 3 h", "value": "most potent inhibitory effects"}, {"measurement": "inhibition of c-di-AMP cleavage by MTB CdnP (HPLC), overnight (12 h) incubation", "setting": "[4]; 12 h", "value": "retained any inhibitory effect"}, {"measurement": "inhibition of c-di-AMP hydrolysis by MTB CdnP (TLC), varying inhibitor concentrations", "setting": "[5]", "value": "most potent inhibition"}, {"measurement": "Ki", "setting": "[6]", "value": "~8", "unit": "µM"}, {"measurement": "binding to MTB CdnP (intrinsic fluorescence decay)", "setting": "[7]", "value": "does bind to MTB CdnP"}, {"measurement": "displacement of radiolabeled c-di-AMP from MTB CdnP (DRaCALA)", "setting": "[2]", "value": "did not displace radiolabeled c-di-AMP"}, {"measurement": "displacement of fluorescent labeled c-di-GMP from MTB CdnP (fluorescence polarization)", "setting": "[8]", "value": "did not displace the fluorescent labeled c-di-GMP"}, {"measurement": "% inhibition (PDE5A)", "setting": "[9]", "value": 32.00, "unit": "%"}, {"measurement": "cytotoxicity against mammalian cells (cell viability)", "setting": "[10]", "value": "did not significantly inhibit cell viability"}, {"measurement": "inhibition of Yybt", "setting": "[11]", "value": "did not inhibit"}, {"measurement": "inhibition of RocR", "setting": "[12]", "value": "did not inhibit"}, {"measurement": "inhibition of ENPP1", "setting": "[13]", "value": "did not inhibit"}, {"measurement": "inhibition of poxin", "setting": "[14]", "value": "did not inhibit"}, {"measurement": "inhibition of GBS-CdnP", "setting": "[15]", "value": "did not inhibit"}]}
{"smiles": "CSc1ccc(C(=O)c2[nH]c(=O)[nH]c2C)cc1", "note": "[enoximone]", "values": [{"measurement": "IC50", "setting": "[16]", "value": 10, "unit": "µM"}]}
{"smiles": "CCOc1cc([C@@H](CS(C)(=O)=O)N2C(=O)c3cccc(NC(C)=O)c3C2=O)ccc1OC", "note": "[apremilast]", "values": [{"measurement": "IC50", "setting": "[17]", "value": 0.074, "unit": "µM"}]}
